28 molecules from patent US20240308973A1, “PHOSPHODIESTERASE 3 (PDE3) INHIBITORS” (Zoetis Services LLC, priority 2023, published 2024) can be followed below.

pIC50: −log10 of the molar value.

dog PDE3A recombinant enzyme, sequence (A0A8I3NYE0 1-1135): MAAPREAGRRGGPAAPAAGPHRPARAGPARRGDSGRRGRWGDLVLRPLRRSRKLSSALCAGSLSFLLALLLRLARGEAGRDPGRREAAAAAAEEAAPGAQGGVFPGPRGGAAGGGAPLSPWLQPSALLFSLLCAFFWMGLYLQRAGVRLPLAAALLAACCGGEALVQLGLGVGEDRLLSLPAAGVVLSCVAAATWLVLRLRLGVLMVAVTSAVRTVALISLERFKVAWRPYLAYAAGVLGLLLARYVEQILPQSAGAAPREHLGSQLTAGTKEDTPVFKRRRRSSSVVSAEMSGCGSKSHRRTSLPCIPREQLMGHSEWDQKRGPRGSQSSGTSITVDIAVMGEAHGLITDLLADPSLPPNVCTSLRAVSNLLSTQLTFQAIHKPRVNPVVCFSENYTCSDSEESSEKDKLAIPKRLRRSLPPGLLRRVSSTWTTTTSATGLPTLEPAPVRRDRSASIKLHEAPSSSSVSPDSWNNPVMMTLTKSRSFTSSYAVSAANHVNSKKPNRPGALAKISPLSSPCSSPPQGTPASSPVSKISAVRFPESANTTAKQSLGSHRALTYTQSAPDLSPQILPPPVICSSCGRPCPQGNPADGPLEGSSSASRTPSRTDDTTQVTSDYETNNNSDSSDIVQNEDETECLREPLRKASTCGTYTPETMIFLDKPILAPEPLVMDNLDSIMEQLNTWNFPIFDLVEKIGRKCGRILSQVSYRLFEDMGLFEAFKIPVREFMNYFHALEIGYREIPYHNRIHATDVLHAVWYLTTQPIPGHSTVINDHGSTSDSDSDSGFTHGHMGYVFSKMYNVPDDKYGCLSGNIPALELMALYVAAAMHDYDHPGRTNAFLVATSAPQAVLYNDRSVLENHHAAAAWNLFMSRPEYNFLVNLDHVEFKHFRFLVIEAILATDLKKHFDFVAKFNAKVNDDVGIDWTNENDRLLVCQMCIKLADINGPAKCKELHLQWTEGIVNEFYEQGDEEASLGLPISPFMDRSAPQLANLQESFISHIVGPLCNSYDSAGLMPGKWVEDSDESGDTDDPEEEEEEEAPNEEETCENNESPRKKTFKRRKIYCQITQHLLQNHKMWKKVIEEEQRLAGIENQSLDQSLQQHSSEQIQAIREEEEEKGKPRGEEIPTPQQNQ

The test has as its target dog PDE3A recombinant enzyme (Canis lupus familiaris, UniProt A0A8I3NYE0). Put plainly: cPDE3A assay (fluorescent polarization). Type of test: biochemical. The note with it: canine PDE3A, read-out: cPDE3 Inhibition (IC50). As to the method:
cPDE3A Assay (Fluorescent Polarization)
The canine PDE3A assay kit was purchased from BPS Bioscience (San Diego, CA) which included dog PDE3A recombinant enzyme, FAM-cyclic-3′,5′-AMP (20 μM), PDE3 assay buffer, binding agent, binding agent diluent and microtiter 96-well plates. Compounds were initially dissolved in DMSO. The stock concentration was subsequently diluted in cPDE assay buffer (10× stock) and serially diluted to give a concentration response curve starting at 10 μM (≥7 total concentrations). Following the serial dilution, compound solution (0.1% final DMSO) was transferred to an assay plate (96-well) where the remaining canine PDE3A assay reagents were dispensed according to the BPS Bioscience® protocol (catalog #79735) procedure using a final concentration of 5 pg/μL of enzyme. Each compound was evaluated for the inhibition of the canine PDE3A enzyme activity using the measurement of fluorescent polarization changes. The 50% inhibition concentration (IC50) nM was calculated and reported.
A word on the pIC50: it is the IC50 on a negative log10 scale, so that one unit is a factor of ten. As to `COc1cc(-c2cc(C3=NNC(=O)CC3C)cc3c2NC(=O)CC3)ccn1` (stereo not shown) [Example #1, 8-(2-methoxypyridin-4-yl)-6-(4-methyl-6-oxo-1,4,5,6-tetrahydropyridazin-3-yl)-3,4-dihydroquinolin-2 (1H)-one], the pIC50 was 7.53.
The value for `CC1CC(=O)NN=C1c1cc2c(c(-c3nccs3)c1)NC(=O)CC2` (stereo not shown) [Example #2, 6-(4-methyl-6-oxo-1,4,5,6-tetrahydropyridazin-3-yl)-8-(thiazol-2-yl)-3,4-dihydroquinolin-2 (1H)-one] was 7.63.
The value for `CC1CC(=O)NN=C1c1cc(Br)c2c(c1)CCC(=O)N2` (stereo not shown) [Example #3, 8-bromo-6-(4-methyl-6-oxo-1,4,5,6-tetrahydropyridazin-3-yl)-3,4-dihydroquinolin-2 (1H)-one] was 8.49; that for `COc1ncc(-c2cc(C3=NNC(=O)CC3C)cc3c2NC(=O)CC3)s1` (stereo not shown) [Example #4, 8-(2-methoxythiazol-5-yl)-6-(4-methyl-6-oxo-1,4,5,6-tetrahydropyridazin-3-yl)-3,4-dihydroquinolin-2 (1H)-one] was 7.61; that for `CC1CC(=O)NN=C1c1ccc2nc(Nc3ccc(S(C)(=O)=O)cc3)n(C)c2c1` (stereo not shown) [Example #5, 5-methyl-6-(1-methyl-2-((4-(methylsulfonyl)phenyl)amino)-1H-benzo[d]imidazol-6-yl)-4,5-dihydropyridazin-3 (2H)-one] was 8.31.
With `O=C1Cc2cc(-c3ccc(=O)[nH]n3)cc(-c3ccc(Cl)cc3)c2N1` [Example #7, 7-(4-chlorophenyl)-5-(6-oxo-1,6-dihydropyridazin-3-yl)indolin-2-one], the pIC50 is 7.39.
The value for `CC1CC(=O)NN=C1c1cc(Cl)c2c(c1)C1(CC1)C(=O)N2` (stereo not shown) [Example #8, 7′-chloro-5′-(4-methyl-6-oxo-1,4,5,6-tetrahydropyridazin-3-yl)spiro[cyclopropane-1,3′-indolin]-2′-one] was 8.41; that for `O=C1CCc2cc(-c3ccc(=O)[nH]n3)cc(-c3ccc(Cl)cc3)c2N1` [Example #9, 8-(4-chlorophenyl)-6-(6-oxo-1,6-dihydropyridazin-3-yl)-3,4-dihydroquinolin-2 (1H)-one] was 7.87; that for `CC1CC(=O)NN=C1c1cc2c(c(-c3cccnc3)c1)NC(=O)CC2` (stereo not shown) [Example #13, 6-(4-methyl-6-oxo-1,4,5,6-tetrahydropyridazin-3-yl)-8-(pyridin-3-yl)-3,4-dihydroquinolin-2 (1H)-one] was 7.35.
The figure for `Cc1cc(=O)[nH]nc1-c1cc(-c2cscn2)c2c(c1)C(C)(C)C(=O)N2` [Example #17, 3,3-dimethyl-5-(4-methyl-6-oxo-1,6-dihydropyridazin-3-yl)-7-(thiazol-4-yl)indolin-2-one] is 7.20.
The value for `COc1ccc(-c2cc(C3=NNC(=O)CC3C)cc3c2NC(=O)CCC3)cn1` (stereo not shown) [Example #18, 9-(6-methoxypyridin-3-yl)-7-(4-methyl-6-oxo-1,4,5,6-tetrahydropyridazin-3-yl)-1,3,4,5-tetrahydro-2H-benzo[b]azepin-2-one] was 7.38.
`CC1(C)C(=O)Nc2c(F)cc(-c3ccc(=O)[nH]n3)cc21` [Example #27, 7-fluoro-3,3-dimethyl-5-(6-oxo-1,6-dihydropyridazin-3-yl)indolin-2-one]: the pIC50 is 7.42.
The value for `CC1CC(=O)NN=C1c1cc(Cl)c2nc(N)sc2c1` (stereo not shown) [Example #30, 6-(2-amino-4-chlorobenzo[d]thiazol-6-yl)-5-methyl-4,5-dihydropyridazin-3 (2H)-one] was 8.40; that for `CC1CC(=O)NN=C1c1cc(F)c2nc(N)sc2c1` (stereo not shown) [Example #31, 6-(2-amino-4-fluorobenzo[d]thiazol-6-yl)-5-methyl-4,5-dihydropyridazin-3 (2H)-one] was 8.26.
The figure for `CC1(C)C(=O)Nc2c(Br)cc(-c3ccc(=O)[nH]n3)cc21` [Example #32, 7-bromo-3,3-dimethyl-5-(6-oxo-1,6-dihydropyridazin-3-yl)indolin-2-one] is 7.57.
The value for `C[C@@H]1CC(=O)NN=C1c1cc(Cl)c2c(c1)C(C)(C)C(=O)N2` [Example #33, (R)-7-chloro-3,3-dimethyl-5-(4-methyl-6-oxo-1,4,5,6-tetrahydropyridazin-3-yl)indolin-2-one] was 8.49; that for `CNc1nc2c(F)cc(C3=NNC(=O)CC3C)cc2s1` (stereo not shown) [Example #34, 6-(4-fluoro-2-(methylamino)benzo[d]thiazol-6-yl)-5-methyl-4,5-dihydropyridazin-3 (2H)-one] was 8.43.
On to `CC1CC(=O)NN=C1c1cc(Cl)c2[nH]c(=O)ccc2c1` (stereo not shown) [Example #35, 8-chloro-6-(4-methyl-6-oxo-1,4,5,6-tetrahydropyridazin-3-yl)quinolin-2 (1H)-one], for which the pIC50 is 8.49.
The figure for `CC1CC(=O)NN=C1c1cc2c(c(Cl)c1F)NC(=O)C2(C)C` (stereo not shown) [Example #36, 7-chloro-6-fluoro-3,3-dimethyl-5-(4-methyl-6-oxo-1,4,5,6-tetrahydropyridazin-3-yl)indolin-2-one] is 8.44; for `CC1CC(=O)NN=C1c1cc(F)c2nc(N3CC(O)C3)sc2c1` (stereo not shown) [Example #37, 6-(4-fluoro-2-(3-hydroxyazetidin-1-yl)benzo[d]thiazol-6-yl)-5-methyl-4,5-dihydropyridazin-3 (2H)-one] it is 8.21.
On to `CC1CC(=O)NN=C1c1cc(C#N)c2nc(N)sc2c1` (stereo not shown) [Example #38, 2-amino-6-(4-methyl-6-oxo-1,4,5,6-tetrahydropyridazin-3-yl)benzo[d]thiazole-4-carbonitrile], for which the pIC50 was 8.13.
Take `CC1CC(=O)NN=C1c1cc(Cl)c2c(c1)CNC2=O` (stereo not shown) [Example #39, 7-chloro-5-(4-methyl-6-oxo-1,4,5,6-tetrahydropyridazin-3-yl)isoindolin-1-one]: the pIC50 was 7.98.
The figure for `CC1CC(=O)NN=C1c1cc(C#N)c2[nH]c(=O)ccc2c1` (stereo not shown) [Example #40, 6-(4-methyl-6-oxo-1,4,5,6-tetrahydropyridazin-3-yl)-2-oxo-1,2-dihydroquinoline-8-carbonitrile] is 7.92; for `CC1CC(=O)NN=C1c1cc(Cl)c2c(c1)C(C)(C)NC2=O` (stereo not shown) [Example #41, 7-chloro-3,3-dimethyl-5-(4-methyl-6-oxo-1,4,5,6-tetrahydropyridazin-3-yl)isoindolin-1-one] it is 7.81; for `CC1CC(=O)NN=C1c1cc(Cl)c2[nH]c(=O)n(C)c2c1` (stereo not shown) [Example #42, 4-chloro-1-methyl-6-(4-methyl-6-oxo-1,4,5,6-tetrahydropyridazin-3-yl)-1,3-dihydro-2H-benzo[d]imidazol-2-one] it is 7.79.
Turning to `CC1CC(=O)NN=C1c1cc(F)c2c(c1)C1(CCC1)C(=O)N2` (stereo not shown) [Example #43, 7′-fluoro-5′-(4-methyl-6-oxo-1,4,5,6-tetrahydropyridazin-3-yl)spiro[cyclobutane-1,3′-indolin]-2′-one], the pIC50 is 7.45.
The figure for `CC1(C)C(=O)Nc2c(Cl)cc(C3=NNC(=O)CC3)cc21` [Example #44, 7-chloro-3,3-dimethyl-5-(6-oxo-1,4,5,6-tetrahydropyridazin-3-yl)indolin-2-one] is 7.03.
As for `CC1CC(=O)NN=C1c1cc(F)c2nc(NCc3cnn(C)c3)sc2c1` (stereo not shown) [Example #46, 6-(4-fluoro-2-(((1-methyl-1H-pyrazol-4-yl)methyl)amino)benzo[d]thiazol-6-yl)-5-methyl-4,5-dihydropyridazin-3 (2H)-one], the pIC50 was 8.47.
